Reference: patent US20060127329A1, “Tartar control oral care composition containing extract of magnolia” (Colgate-Palmolive Company, priority 2004, published 2006)

Tested on: representative oral bacteria S. mutans, F. nucleatum, V. parvula, A. naslundii, P. gingivitis
Assay: in vitro test Minimal Inhibitory Concentration (MIC)
Format: cell-based
Conditions: no numbers given
From the text: The compositions of the present invention comprise at least one active compound found in an extract of magnolia. As referred to here, such an “extract” of magnolia is an extract from dried cortex, or bark, of a plant from the Magnoliaceae family, such as Magnolia officinalis, (hereinafter “magnolia”) or a synthetic or semi-synthetic equivalent of such an extract or an active component thereof. […] In other embodiments, the antibacterial ingredient comprises an extract of magnolia. […] It should be noted that any plant from the Magnoliaceae family is suitable for the present invention and may be used in alternate embodiments, preferably such that the extract comprises an antimicrobially effective concentration of a compound selected from the group consisting of magnolol, honokiol, tetrahydromagnolol, tetrahydrohonokiol, and mixtures thereof.

SMILES	bactericidal properties against representative oral bacteria
C=CCc1ccc(O)c(-c2ccc(O)c(CC=C)c2)c1 [honokiol]	demonstrated bactericidal properties
C=CCc1ccc(O)c(-c2cc(CC=C)ccc2O)c1 [magnolol]	demonstrated bactericidal properties
CCCc1ccc(O)c(-c2ccc(O)c(CCC)c2)c1 [tetrahydrohonokiol]	demonstrated bactericidal properties
CCCc1ccc(O)c(-c2cc(CCC)ccc2O)c1 [tetrahydromagnolol]	demonstrated bactericidal properties
